Experimental data taken from US5922730A, “Alkylated rapamycin derivatives” (American Home Products Corporation, priority 1998, dated 1999).
Values joined by “and” are separate entries in the source; they are usually repeats but may differ in a detail not shown here. Equal entries are not always repeated.

Columns and labels:
[1] = tested on: pinch skin graft from male DBA/2 donors transplanted to male BALB/c recipients; assay: pinch skin graft survival; format: in vivo; conditions: intraperitoneal
Protocol: (§1) Immunosuppressive activity was evaluated in an in vitro standard pharmacological test procedure to measure lymphocyte proliferation (LAF), in an in vivo procedure to evaluate the survival time of a pinch skin graft, and in an in vivo procedure to determine inhibition of T-cell mediated inflammatory response (adjuvant arthritis).
The in vivo test procedure is designed to determine the survival time of pinch skin graft from male DBA/2 donors transplanted to male BALB/c recipients. The method is adapted from Brllingham R. E. and Medawar P. B., J. Exp. Biol. 28:385-402, (1951). Briefly, a pinch skin graft from the donor is grafted on the dorsum of the recipient as a homograft, and an autograft is used as control in the same region. […] Untreated recipients serve as rejection control. The graft is monitored daily and observations are recorded until the graft becomes dry and forms a blackened scab. This is considered as the rjection day. The mean graft survival time (MST -number of days±S.D.) of the drug treatment group is compared with the control group. Rapamycin treatment provides a mean graft survival (MST) of is 12.0±1.7 days.

[2] = tested on: Freund's Complete Adjuvant (FCA) induced arthritis; assay: adjuvant arthritis standard pharmacological test procedure; format: in vivo, rats (male inbred Wistar Lewis)
Protocol: as §1
The in vivo adjuvant arthritis standard pharmacological test procedure measures the abilty of test compounds to prevent immune mediated inflammation and inhibit or treat rheumatoid arthritis. The following briefly describes the test procedure used. A group of rats (male inbred Wistar Lewis rats) are pre-treated with the compound to be tested (1 h prior to antigen) and then injected with Freund's Complete Adjuvant (FCA) in the right hind paw to induce arthritis. The rats are then orally dosed on a Monday, Wednesday, Friday schedule from day 0-14 for a total of 7 doses. Both hind paws are measured on days 16, 23 and 30. The difference in paw volume (mL) from day 16 to day 0 is determined and a percent change from control is obtained. The left hind paw (uninjected paw) inflammation is caused by T-cell mediated inflammation and is recorded as percent change from control. The right hind paw inflammation, on the other hand, is caused by non-specific inflammation. Compounds were tested at a dose of 2 mg/kg.

[3] = tested on: breast (T47D) cancer cell line; assay: inhibition of growth of human tumor cells in vitro (Sulforhodaine B); format: cell-based; conditions: 48 hours exposure
Protocol: (§2) Human tumor cell lines were plated in 96-well plates (250 μL well, 1-6×10^4 cells/mL) in RPMI 1640 medium, containing 5% FBS (Petal Bovine Serum). Twenty-four hours after plating, drugs were added at five log concentrations (0.01-100 μg/mL). After 48 hours exposure to drugs, cells were fixed with trichloroacteic acid, and stained with Sulforhodaine B. After washing with trichloroacetic acid, bound dye was solubilized in 10 mM Tris base and Optical Density was determined using a plate reader. Under conditions of the assay, the optical density is proportional to the number of cells in the well. IC50 s (concentrations causing 50% inhibition of cell growth) were determined from the growth inhibition plots. The assay is described in details by Philip Skehan et al., J. National Cancer Institute 82, 1107-1112, 1990.

[4] = tested on: colon (MIP 101) cancer cell line; assay: as above; format: cell-based; conditions: MIP 101, 48 hours exposure
Protocol: as §2

[5] = tested on: ovarian (A 2780S) cancer cell line; assay: as above; format: cell-based; conditions: 48 hours exposure
Protocol: as §2

[6] = tested on: thymocyte proliferation (cells from the thymus, PHA and IL-1); assay: comitogen-induced thymocyte proliferation procedure (LAF); format: cell-based, BALB/c mice
Protocol: Briefly, cells from the thymus of normal BAUI/c mioe are cultured for 72 hours with PHA and IL-1 and pulsed with tritiated thymidine during the last six hours. […] Cells are harvested and incorporated; radioactivity is determined. Inhibition of lymphoproliferation is assessed in percent change in counts per minute from nondrug treated controls.

Candida albicans = conditions: particularly against Candida albicans, in vitro and in vivo; cited from earlier work
[7] = tested on: experimental allergic encephalomyelitis model; conditions: model for multiple sclerosis; cited from earlier work
[8] = tested on: formation of IgE-like antibodies; conditions: in vivo; cited from earlier work

Row | Compound | Skin Graft MST ± S.D. (mean graft survival time) [1] | Adjuvant Arthritis % Change (uninjected paw at day 16 versus control) ([2]; 2 mg/kg, oral, more negative = more potent) [%] | inhibition of cancer cell line growth [3] | inhibition of cancer cell line growth [4] | inhibition of cancer cell line growth [5] | IC50 ([6]; LAF, PHA and IL-1, 72 hours, read-out: IC50 analog) [nM] | R/A (ratio of the ID50s of rapamycin to the analog) ([6]; ratio less than 1.0 means the analog is less potent than rapamycin) | immune-induced inflammation less than control rats ([2]; rapamycin treated rats versus control rats) | antifungal activity (Candida albicans) | effect in experimental allergic encephalomyelitis model [7] | inhibition of formation of IgE-like antibodies [8]
1 | COCCOCCOCCO[C@@H]1CC[C@@H](C[C@@H](C)[C@@H]2CC(=O)[C@H](C)/C=C(\C)[C@@H](O)[C@@H](OC)C(=O)[C@H](C)C[C@H](C)/C=C/C=C/C=C(\C)[C@@H](OC)C[C@@H]3CC[C@@H](C)[C@@](O)(O3)C(=O)C(=O)N3CCCC[C@H]3C(=O)O2)C[C@H]1OC [Example 3, 42-O-(2-[2-(2-methoxyethoxy)-ethoxy]-ethyl)-rapamycin] | 9.8 days and 9.7 days | -88 | submicromolar concentrations | submicromolar concentrations | submicromolar concentrations |  |  |  |  |  | 
2 | 29-O-Benzylrapamycin [Example 1] | 7.2 days |  |  |  |  | 4.2 | 0.12 |  |  |  | 
3 | CO[C@H]1C[C@@H]2CC[C@@H](C)[C@@](O)(O2)C(=O)C(=O)N2CCCC[C@H]2C(=O)O[C@H]([C@H](C)C[C@@H]2CC[C@@H](O)[C@H](OC)C2)CC(=O)[C@H](C)/C=C(\C)[C@@H](O)[C@@H](OC)C(=O)[C@H](C)C[C@H](C)/C=C/C=C/C=C/1C [rapamycin] | 12.0 ± 1.7 days |  |  |  |  |  |  | 70-90% | antifungal activity | effective | effectively inhibited
